From patent US20190275167A1, “GLASS FORMULATIONS AND USES THEREOF” (priority 2018, published 2019)

Tests used:
[1] = system: joint of a subject suffering from inflammation, e.g., arthritis; assay: Microparticles and nanoparticles injected into the joint of a subject suffering from inflammation; format: in vivo
From the text: Microparticles and nanoparticles are formed from Compound 1 according to the methods described in above. […] Local inflammation in the joint of the subject is reduced. Similarly, the other compounds of the disclosure can likewise be used to form micro- and nanoparticles and injected into the joint of a subject for the purposes of treating, e.g., inflammation, and the drug is released at a steady rate over several months (e.g., three months).

[2] = Drug release from heat-molded pellets/articles in release buffer (PBS, 1% FBS in PBS or 100% FBS) at 37° C., HPLC quantification; format: physicochemical; conditions: for Drug release from heat molded pellets: pellets 1 mm×1 mm
Method: Samples were incubated at 37° C. on a shaker rotating at 115 rpm. After 1 day, 3 days, 7 days, and subsequently in alternating 3 and 4 day intervals (i.e., 1, 3, 7, 10, 14 days etc.), release buffer was sampled directly (PBS) or syringe filtered, proteins were precipitated with acetonitrile, and drug release products were extracted. The samples were analyzed by high performance liquid chromatography (HPLC) to quantify drug products.

[3] = Ethylene oxide (ETO) gas sterilization of heat-molded pellets, purity by HPLC and drug release pre- and post-ETO; format: physicochemical; conditions: ETO gas at 55° C.

C[C@@H]1C[C@H]2[C@@H]3CCC4=CC(=O)C=C[C@]4(C)[C@@]3(F)[C@@H](O)C[C@]2(C)[C@@]1(O)C(=O)COC(=O)OCCOCCOCCOC(=O)OCC(=O)[C@@]1(O)[C@H](C)C[C@H]2[C@@H]3CCC4=CC(=O)C=C[C@]4(C)[C@@]3(F)[C@@H](O)C[C@@]21C [Compound 1, Dexamethasone-Triethylene Glycol-Dexamethasone]
Local inflammation in the joint of the subject [1]: reduced
Release of drug into the subject from injected micro- and nanoparticles [1]: steady rate over three months
Mechanism of drug release from pellets (representative images over time) ([2]; 100% FBS, 37° C.): surface erosion
Dexamethasone release profile from articles ([2]; over the course of 12 weeks or more, FIGS. 1E, 12E, 15C, 17D): generally linear
Shape of pellets during surface erosion (FIG. 1F (100% FBS)): maintaining their shape
Physical form (shape) changes of articles (physiologically relevant conditions): do not
Change in pellet purity due to ETO sterilization (HPLC) ([3]; pre- vs post-sterilization): no changes
Change in release properties due to ETO sterilization ([3]; release in 1% FBS in PBS or 100% FBS): no changes

Cholesterol-Triethylene Glycol-Cholesterol [Compound 14]
Drug release from heat molded pellets ([2]; 100% FBS, 37° C.): no drug was released
Drug release from heat molded pellets ([2]; PBS, 37° C.): no drug was released

Ethinylestradiol-Triethylene Glycol-Ethinylestradiol [Compound 16]
Drug release from heat molded pellets ([2]; 100% FBS, 37° C.): no drug was released
Drug release from heat molded pellets ([2]; PBS, 37° C.): no drug was released

Fusidic Acid-Triethylene Glycol-Fusidic Acid (carbonate ester) [Compound 9]
Speed of drug release compared to other drug dimers with triethylene glycol linker ([2]; 100% FBS): release very quickly

Fusidic Acid-Triethylene Glycol-Fusidic Acid (ester) [Compound 15]
Drug release from heat molded pellets ([2]; 100% FBS, 37° C.): no drug was released
Drug release from heat molded pellets ([2]; PBS, 37° C.): no drug was released

Hydrocortisone-Triethylene Glycol-Hydrocortisone [Compound 2]
Speed of drug release compared to other drug dimers with triethylene glycol linker ([2]; 100% FBS): release very quickly
